The source of these data is patent US10357036B2, “Compounds for controlling arthropods” (priority 2015, dated 2019).

Test [1] relates to Ctenocephalides felis. The test is described as follows: Ctenocephalides felis in vitro contact test with adult cat fleas. The following applies: application rate 5 μg/cm^2 (=500 g/ha); after 48 h; dead or moribund fleas. Format: in vivo. As for the experimental part: (§1) For the coating of the test tubes, 9 mg of active ingredient are first dissolved in 1 ml of acetone p.a. and then diluted to the desired concentration with acetone p.a. 250 μl of the solution are distributed homogeneously on the inner walls and the base of a 25 ml glass tube by turning and rocking on an orbital shaker (rocking rotation at 30 rpm for 2 h). With 900 ppm of active ingredient solution and internal surface area 44.7 cm^2, given homogeneous distribution, an area-based dose of 5 μg/cm^2 is achieved.
After the solvent has evaporated off, the tubes are populated with 5-10 adult cat fleas (Ctenocephalides felis), sealed with a perforated plastic lid and incubated in a horizontal position at room temperature and ambient humidity. After 48 h, efficacy is determined. To this end, the tubes are stood upright and the fleas are knocked to the base of the tube. Fleas which remain motionless at the base or move in an uncoordinated manner are considered to be dead or moribund.
100% efficacy means that all the fleas were dead or moribund. 0% efficacy means that no fleas were harmed.

The subject of another test is Rhipicephalus sanguineus. The test is described as follows: Rhipicephalus sanguineus in vitro contact test with adult brown dog ticks. Format: in vivo. The following applies: after 48 h. As for the experimental part:
as §1
After the solvent has evaporated off, the tubes are populated with 5-10 adult dog ticks (Rhipicephalus sanguineus), sealed with a perforated plastic lid and incubated in a horizontal position in the dark at room temperature and ambient humidity. After 48 h, efficacy is determined. To this end, the ticks are knocked to the base of the tube and incubated on a hotplate at 45-50° C. for not more than 5 min. Ticks which remain motionless on the base or move in such an uncoordinated manner that they are unable to deliberately avoid the heat by climbing upwards are considered to be dead or moribund.
An efficacy of 100% means that all the ticks were dead or moribund. 0% efficacy means that none of the ticks were harmed.

The test system of a further test is Boophilus microplus. In words: Boophilus microplus injection test. The format is in vivo. The following applies: 20 μg/animal; assessed after 7 days. The protocol: (§2) • Solvent: dimethyl sulfoxide
1 μl of the active ingredient solution is injected into the abdomen of 5 engorged adult female cattle ticks (Boophilus microplus). The animals are transferred into dishes and kept in a climate-controlled room.

Test [2] has as its system Ctenocephalides felis. The test is described as follows: Ctenocephalides felis oral test. The format is in vivo. As to conditions: 100 ppm in citrated cattle blood; after 2 days. The protocol: • Solvent: Dimethyl Sulfoxide
To produce a suitable active ingredient formulation, 10 mg of active ingredient are mixed with 0.5 ml of dimethyl sulfoxide. Dilution with citrated cattle blood gives the desired concentration.
About 20 unfed adult cat fleas (Ctenocephalides fells) are placed into a chamber which is closed at the top and bottom with gauze. A metal cylinder whose bottom end is closed with parafilm is placed onto the chamber. The cylinder contains the blood/active ingredient formulation, which can be imbibed by the fleas through the parafilm membrane.

The subject of a further test is Musca domestica. The test is described as follows: Musca domestica test. Format: in vivo. As to conditions: 100 ppm; adult houseflies; after 2 days. As for the experimental part:
as §2
To produce a suitable active ingredient formulation, 10 mg of active ingredient are mixed with 0.5 ml of dimethyl sulfoxide, and the concentrate is diluted with water to the desired concentration.
Vessels containing a sponge treated with sugar solution and the active ingredient formulation of the desired concentration are populated with 10 adult houseflies (Musca domestica).

In the next test the test system is Spodoptera frugiperda. The test is described as follows: Spodoptera frugiperda spray test. Format: in vivo. The following applies: 100 g/ha; after 7 days.
A further test deals with Tetranychus urticae. In words: Tetranychus urticae spray test, OP-resistant (bean leaf discs). The format is in vivo. The following applies: 100 g/ha; after 6 days. The protocol:
After 6 days, the efficacy in % is determined.

Another test concerns Phaedon cochleariae. In words: Phaedon cochleariae spray test. The following applies: 100 g/ha; after 7 days.
Setting [3] is: application rate 5 μg/cm^2 (=500 g/ha), dead or moribund ticks.

SMILES strings stand for the structures.

Turning to `CC(=O)NCc1cc(-c2cnn(-c3c(Cl)cc(C(F)(C(F)(F)F)C(F)(F)F)cc3C(F)(F)F)c2)ccc1F` [Ia-82], the efficacy in the test with Ctenocephalides felis [1], in the test with Rhipicephalus sanguineus (setting [3]), in the test on Spodoptera frugiperda, in the test on Tetranychus urticae and with Phaedon cochleariae was 100% throughout. For the same molecule, the “efficacy (laying of fertile eggs)” value in the test on Boophilus microplus is reported as 100%. The “efficacy (rate of extermination)” value with Ctenocephalides felis [2] and with Musca domestica was 100% throughout.
For the molecule `CC(=O)NCc1cc(-c2cnn(-c3c(Cl)cc(C(F)(C(F)(F)F)C(F)(F)F)cc3C(F)(F)F)c2)cnc1Cl` [Ia-139], the efficacy in the test on Ctenocephalides felis [1] was found to be 100%; in the test with Rhipicephalus sanguineus (setting [3]), 100%; in the test with Spodoptera frugiperda, 100%; in the test with Tetranychus urticae, 90%; with Phaedon cochleariae it was 100%. In the test with Boophilus microplus, the “efficacy (laying of fertile eggs)” value stood at 100%. Besides, the “efficacy (rate of extermination)” value with Ctenocephalides felis [2] and with Musca domestica was 100% throughout.
For the molecule `Cc1cc(C(F)(C(F)(F)F)C(F)(F)F)cc(Cl)c1-n1cc(-c2ccc(F)c(CNC(=O)C3CC3)c2)cn1` [Ia-67], the efficacy was 80% in the test on Ctenocephalides felis [1]; 80% in the test on Rhipicephalus sanguineus (setting [3]); 100% in the test on Spodoptera frugiperda; 100% in the test on Tetranychus urticae; 100% in the test with Phaedon cochleariae. Besides, the “efficacy (laying of fertile eggs)” value with Boophilus microplus is reported as 100%. Further, the “efficacy (rate of extermination)” value with Ctenocephalides felis [2] and with Musca domestica was 100% in each case.
As for `CCC(=O)N(C)Cc1cc(-c2cnn(-c3c(Cl)cc(C(F)(C(F)(F)F)C(F)(F)F)cc3Cl)c2)ccc1Cl` [Ia-32], the efficacy in the test on Ctenocephalides felis [1] came to 100%; in the test on Rhipicephalus sanguineus (setting [3]), 80%; in the test on Spodoptera frugiperda it was 100%; in the test on Tetranychus urticae it was 100%; in the test with Phaedon cochleariae, 100%. In addition, the “efficacy (laying of fertile eggs)” value in the test on Boophilus microplus stood at 100%. Also, in the test with Ctenocephalides felis [2], the “efficacy (rate of extermination)” value was found to be 100%.
Turning to `CC(=O)N(C)Cc1cc(-c2cnn(-c3c(Cl)cc(C(F)(C(F)(F)F)C(F)(F)F)cc3OC(F)(F)F)c2)ccc1F` [Ia-63], the efficacy is 100% with Ctenocephalides felis [1]; 80% with Rhipicephalus sanguineus (setting [3]); 100% in the test on Spodoptera frugiperda; 100% in the test on Tetranychus urticae; 100% in the test on Phaedon cochleariae. For the same molecule, the “efficacy (laying of fertile eggs)” value in the test with Boophilus microplus is listed as 100%. Moreover, the “efficacy (rate of extermination)” value in the test on Ctenocephalides felis [2] and in the test with Musca domestica was 100% in each case.
As for `CCC(=O)NCc1cc(-c2cnn(-c3c(Cl)cc(C(F)(C(F)(F)F)C(F)(F)F)cc3Cl)c2)ccc1Cl` [Ia-16], the efficacy with Ctenocephalides felis [1], with Rhipicephalus sanguineus (setting [3]), with Spodoptera frugiperda and with Phaedon cochleariae was 100% in each case. In addition, in the test on Boophilus microplus, the “efficacy (laying of fertile eggs)” value came to 100%. In addition, the “efficacy (rate of extermination)” value in the test on Ctenocephalides felis [2] and in the test with Musca domestica was 100% in each case.
As for `CCC(=O)NCc1cccc(-c2cnn(-c3c(C)cc(C(F)(C(F)(F)F)C(F)(F)F)cc3Cl)c2)c1` [Ia-69], the efficacy in the test with Ctenocephalides felis [1] is reported as 100%; in the test on Rhipicephalus sanguineus (application rate 1 μg/cm^2 (=100 g/ha)), 80%; with Spodoptera frugiperda, 100%; in the test on Phaedon cochleariae it was 100%. The “efficacy (laying of fertile eggs)” value in the test with Boophilus microplus came out at 100%. For the same molecule, the “efficacy (rate of extermination)” value with Ctenocephalides felis [2] and in the test with Musca domestica was 100% throughout.
On to `CC(=O)N(C)Cc1cc(-c2cnn(-c3c(Cl)cc(C(F)(C(F)(F)F)C(F)(F)F)cc3Cl)c2)ccc1Cl` [Ia-20], for which the efficacy in the test with Ctenocephalides felis [1] was 100%; in the test on Rhipicephalus sanguineus (setting [3]), 80%; in the test on Spodoptera frugiperda it was 100%; with Tetranychus urticae, 100%; in the test on Phaedon cochleariae, 100%. Further, in the test on Boophilus microplus, the “efficacy (laying of fertile eggs)” value turned out to be 100%. The “efficacy (rate of extermination)” value was 100% in the test with Ctenocephalides felis [2] and 90% in the test with Musca domestica.
As for `CCC(=O)NCc1cc(-c2cnn(-c3c(Cl)cc(C(F)(C(F)(F)F)C(F)(F)F)cc3Cl)c2)ccc1F` [Ia-30], the efficacy in the test on Ctenocephalides felis [1], with Rhipicephalus sanguineus (setting [3]) and with Spodoptera frugiperda was 100% each time. Further, the “efficacy (laying of fertile eggs)” value with Boophilus microplus came out at 100%. For the same molecule, the “efficacy (rate of extermination)” value in the test on Ctenocephalides felis [2] and with Musca domestica was 100% throughout.
As to `CC(C)C(=O)NCc1cc(-c2cnn(-c3c(Cl)cc(C(F)(C(F)(F)F)C(F)(F)F)cc3C(F)F)c2)ccc1F` [Ia-60], the efficacy in the test on Ctenocephalides felis [1], with Spodoptera frugiperda, in the test with Tetranychus urticae and in the test with Phaedon cochleariae was 100% throughout. Also, the “efficacy (laying of fertile eggs)” value in the test on Boophilus microplus is reported as 100%. Moreover, the “efficacy (rate of extermination)” value in the test with Ctenocephalides felis [2] and in the test with Musca domestica was 100% in each case.
Take `CC(=O)N(Cc1cc(-c2cnn(-c3c(Cl)cc(C(F)(C(F)(F)F)C(F)(F)F)cc3Cl)c2)ccc1Cl)CC1CC1` [Ia-116]: the efficacy in the test on Ctenocephalides felis [1] is 100%; with Rhipicephalus sanguineus (setting [3]) it was 80%; in the test with Spodoptera frugiperda, 100%; in the test on Tetranychus urticae it was 100%; in the test with Phaedon cochleariae, 100%. Moreover, the “efficacy (laying of fertile eggs)” value in the test with Boophilus microplus was found to be 100%. The “efficacy (rate of extermination)” value with Ctenocephalides felis [2] and in the test with Musca domestica was 100% in each case.
As for `O=C(NCc1cc(-c2cnn(-c3c(Cl)cc(C(F)(C(F)(F)F)C(F)(F)F)cc3C(F)(F)F)c2)ccc1Cl)C1CC1` [Ia-54], the efficacy in the test on Ctenocephalides felis [1] stood at 80%; in the test with Rhipicephalus sanguineus (setting [3]), 100%; in the test with Spodoptera frugiperda it was 100%; in the test on Phaedon cochleariae it was 100%. In addition, the “efficacy (laying of fertile eggs)” value in the test on Boophilus microplus is recorded as 100%. In addition, the “efficacy (rate of extermination)” value in the test on Ctenocephalides felis [2] and with Musca domestica was 100% in each case.
Take `CC(=O)NCc1c(F)ccc(-c2cnn(-c3c(Cl)cc(C(F)(C(F)(F)F)C(F)(F)F)cc3OC(F)F)c2)c1F` [Ia-158]: the efficacy in the test with Ctenocephalides felis [1], with Spodoptera frugiperda, in the test with Tetranychus urticae and in the test with Phaedon cochleariae was 100% in each case. The “efficacy (laying of fertile eggs)” value in the test with Boophilus microplus was found to be 100%. The “efficacy (rate of extermination)” value with Ctenocephalides felis [2] and in the test on Musca domestica was 100% each time.
For `O=C(NCc1cc(-c2cnn(-c3c(Cl)cc(C(F)(C(F)(F)F)C(F)(F)F)cc3OC(F)F)c2)ccc1Cl)C1CC1` [Ia-52], the efficacy in the test with Ctenocephalides felis [1], in the test on Rhipicephalus sanguineus (setting [3]), with Spodoptera frugiperda and in the test on Phaedon cochleariae was 100% in each case. The “efficacy (laying of fertile eggs)” value in the test on Boophilus microplus was 100%. In addition, the “efficacy (rate of extermination)” value with Ctenocephalides felis [2] and with Musca domestica was 100% each time.
Consider `CCC(=O)NC1CCc2ccc(-c3cnn(-c4c(Cl)cc(C(F)(C(F)(F)F)C(F)(F)F)cc4OC(F)F)c3)cc21` (stereo not drawn) [I-Tc-03], for which the efficacy with Ctenocephalides felis [1], in the test with Rhipicephalus sanguineus (setting [3]), in the test with Spodoptera frugiperda and in the test on Tetranychus urticae was 100% each time. For the same molecule, the “efficacy (laying of fertile eggs)” value in the test with Boophilus microplus is reported as 100%. Also, in the test with Ctenocephalides felis [2], the “efficacy (rate of extermination)” value was determined as 100%.
Turning to `CC(=O)N(C)Cc1cc(-c2cnn(-c3c(Cl)cc(C(F)(C(F)(F)F)C(F)(F)F)cc3Cl)c2)ccc1F` [Ia-64], the efficacy in the test on Ctenocephalides felis [1], in the test on Spodoptera frugiperda, in the test on Tetranychus urticae and with Phaedon cochleariae was 100% in each case. For the same molecule, the “efficacy (laying of fertile eggs)” value with Boophilus microplus is 100%. The “efficacy (rate of extermination)” value in the test on Ctenocephalides felis [2] and with Musca domestica was 100% in each case.
With `CCC(=O)N(C)Cc1cc(-c2cnn(-c3c(Cl)cc(C(F)(C(F)(F)F)C(F)(F)F)cc3Cl)c2)ccc1F` [Ia-71], the efficacy in the test on Ctenocephalides felis [1], in the test on Spodoptera frugiperda, in the test with Tetranychus urticae and in the test with Phaedon cochleariae was 100% throughout. Moreover, the “efficacy (laying of fertile eggs)” value in the test with Boophilus microplus amounted to 100%. Further, the “efficacy (rate of extermination)” value in the test with Ctenocephalides felis [2] and with Musca domestica was 100% in each case.
